Data published in paper PMC8911640, “Synthesis and Structure–Activity Relationship of Thioacetamide-Triazoles against Escherichia coli” (Molecules, 2022).
≈ marks a conversion by molar mass, not a printed value. Like-named read-outs stand apart in the source and are kept apart here.

Key:
[1] = test system: E. coli K12 MG1655; experiment: MIC testing by CLSI broth microdilution in M9-based minimal media ATCC 2511, with or without methionine; assay type: cell-based, Escherichia coli; settings: for MIC90: Escherichia coli; for antibacterial activity against E. coli in words: E. coli K12
Protocol: To explore the SAR around the right hand aryl portion of the TAT series (Table 1), compounds were evaluated for their in vitro antibacterial activity against E. coli in the M9-based minimal media ATCC 2511. […]. An MIC shift between the two medias was used to indicate that antibacterial activity of the compounds remained on target, and this was happily seen with all of the most MIC active compounds generated in this study. Within the first series of compounds in Table 1, modifications to the phenyl ring are generally well tolerated. MICs remain within 2-fold of the initial hit 1 for the fluoro- and cyano- substituted compounds 1–8. […]. Incorporating the electron-donating group -OMe and sterically bulky iodine group in both ortho and para position, 17–20, maintained activity, whereas the introduction of the strong electron-withdrawing -CF3 group, 21 and 22, led to poorer MIC activity. […] The phenyl ring isosteres—thiazoles 25 and 26—both retained good MIC activity. Adding a methyl branch to the thioacetamide linker 28 and 29 led to a striking loss of activity. Replacement of the aryl group with the aliphatic groups cyclohexyl 31, cyclopentyl 32, tert-butyl groups 33 all reduced activity.
MICs were determined following CLSI broth microdilution susceptibility M100 guidelines. Compound solutions were prepared in DMSO and serially diluted 1:2 in 100 μL/well in 96 well round-bottom plates. E. coli K12 MG1655 was acquired from ATCC and strictly maintained in the M9-based media ATCC 2511. ATCC 2511 was also used for all further cultivation and MIC testing. Bacteria were grown from a single colony to a mid-log OD600 and frozen in 0.5 mL aliquots. These aliquots were used to directly inoculate the assay plates by diluting to an OD600 of 0.001 and plating 100 μL per well, allowing for ~10^5 CFU to be added to each well.

[2] = No Supplement (N.S.), ATCC 2511 media, 16 h, 37 °C
[3] = No Supplement (N.S.), ATCC 2511 media, 16 h, 37 °C, read-out: E. coli K12 MIC90
[4] = MG1655, read-out: E. coli K12 MIC90
[5] = 16 h, read-out: E. coli K12 MIC90

Molecule: 3-[(1H-1,2,3-triazol-4-yl)sulfanyl]-N-(2-fluorophenyl)propenamide [Compound 30]
- E. coli K12 MIC90 ([1]; +20 μg/mL Methionine): 25 µg/mL
- E. coli K12 MIC90 [1, 2]: 6.3 µg/mL

Molecule: O=C(N[C@H](CO)[C@H](O)c1ccc([N+](=O)[O-])cc1)C(Cl)Cl [Chloramphenicol, reference compound]
- MIC90 [1, 3]: 1.6 µg/mL (≈ 4.95 µM)

Molecule: O=C(CSc1c[nH]nn1)Nc1cccc(F)c1 [Compound 7, 2-[(1H-1,2,3-triazol-4-yl)sulfanyl]-N-(3-fluorophenyl)acetamide]
- MIC90 [1, 4]: 12.5 µg/mL (≈ 49.5 µM)
- MIC90 [1, 3]: 1.6 µg/mL (≈ 6.34 µM)
- E. coli K12 MIC90 [1, 2]: ≤ 3.1 µg/mL

Molecule: N#Cc1cccc(NC(=O)CSc2c[nH]nn2)c1 [Compound 8, 2-[(1H-1,2,3-triazol-4-yl)sulfanyl]-N-(3-cyanophenyl)acetamide]
- MIC90 [1, 4]: 12.5 µg/mL (≈ 48.2 µM)
- MIC90 [1, 3]: 3.1 µg/mL (≈ 12 µM)
- melting point: 158 to 159 °C

Molecule: O=C(CSc1c[nH]nn1)Nc1ccncc1 [Compound 10]
- fold change (loss) in MIC activity relative to initial hit 1 ([1]; E. coli K12, no supplement): 8 fold
- MIC90 [1, 4]: 50 µg/mL (≈ 213 µM)
- MIC90 [1, 3]: 12.5 µg/mL (≈ 53.1 µM)
- melting point: 187 to 188 °C

Molecule: O=C(CSc1cnn[nH]1)Nc1ccccc1 [Compound 11]
- MIC90 [1, 4]: 6.3 µg/mL (≈ 26.9 µM)
- MIC90 [1, 3]: 1.6 µg/mL (≈ 6.83 µM)

Molecule: N#Cc1cccnc1NC(=O)CSc1c[nH]nn1 [Compound 12]
- MIC90 [1, 3]: 25 µg/mL (≈ 96 µM)
- melting point: 113 to 114 °C

Molecule: O=C(CSc1c[nH]nn1)Nc1ncccc1F [Compound 13, 2-[(1H-1,2,3-triazol-4-yl)sulfanyl]-N-(3-fluoropyridin-2-yl)acetamide]
- MIC90 [1, 4]: 25 µg/mL (≈ 98.7 µM)
- MIC90 [1, 3]: 6.3 µg/mL (≈ 24.9 µM)
- melting point: 99 to 100 °C

Molecule: O=C(CSc1c[nH]nn1)Nc1ccc(F)cn1 [Compound 14, 2-[(1H-1,2,3-triazol-4-yl)sulfanyl]-N-(5-fluoropyridin-2-yl)acetamide]
- MIC90 [1, 4]: 12.5 µg/mL (≈ 49.4 µM)
- MIC90 [1, 3]: 3.1 µg/mL (≈ 12.2 µM)
- melting point: 151 to 153 °C

Molecule: N#Cc1ccc(NC(=O)CSc2c[nH]nn2)cn1 [Compound 15, 2-[(1H-1,2,3-triazol-4-yl)sulfanyl]-N-(6-cyanopyridin-3-yl)acetamide]
- MIC90 [1, 4]: 50 µg/mL (≈ 192 µM)
- MIC90 [1, 3]: 6.3 µg/mL (≈ 24.2 µM)
- melting point: 198 to 199 °C

Molecule: N#Cc1ccc(NC(=O)CSc2c[nH]nn2)nc1 [Compound 16, 2-[(1H-1,2,3-triazol-4-yl)sulfanyl]-N-(5-cyanopyridin-2-yl)acetamide]
- MIC90 [1, 4]: 6.3 µg/mL (≈ 24.2 µM)
- MIC90 [1, 3]: 3.1 µg/mL (≈ 11.9 µM)
- melting point: 118 to 119 °C

Molecule: COc1ccccc1NC(=O)CSc1c[nH]nn1 [Compound 17, 2-[(1H-1,2,3-triazol-4-yl)sulfanyl]-N-(2-methoxyphenyl)acetamide]
- MIC90 [1, 3]: 6.3 µg/mL (≈ 23.8 µM)
- melting point: 99 to 100 °C

Molecule: COc1ccc(NC(=O)CSc2c[nH]nn2)cc1 [Compound 18, 2-[(1H-1,2,3-triazol-4-yl)sulfanyl]-N-(4-methoxyphenyl)acetamide]
- MIC90 [1, 4]: 12.5 µg/mL (≈ 47.3 µM)
- MIC90 [1, 3]: 3.1 µg/mL (≈ 11.7 µM)
- melting point: 130 to 131 °C

Molecule: O=C(CSc1c[nH]nn1)Nc1ccccc1I [Compound 19, 2-[(1H-1,2,3-triazol-4-yl)sulfanyl]-N-(2-iodophenyl)acetamide]
- MIC90 [1, 3]: 3.1 µg/mL (≈ 8.61 µM)
- melting point: 122 to 124 °C

Molecule: O=C(CSc1c[nH]nn1)Nc1ccc(I)cc1 [Compound 20, 2-[(1H-1,2,3-triazol-4-yl)sulfanyl]-N-(4-iodophenyl)acetamide]
- MIC90 [1, 4]: 25 µg/mL (≈ 69.4 µM)
- MIC90 [1, 3]: 6.3 µg/mL (≈ 17.5 µM)
- melting point: 166 to 168 °C

Molecule: O=C(CSc1c[nH]nn1)Nc1ccccc1C(F)(F)F [Compound 21]
- MIC90 [1, 3]: 25 µg/mL (≈ 82.7 µM)
- melting point: 83 to 85 °C

Molecule: O=C(CSc1c[nH]nn1)Nc1ccc(C(F)(F)F)cc1 [Compound 22]
- MIC90 [1, 3]: 25 µg/mL (≈ 82.7 µM)
- melting point: 163 to 165 °C

Molecule: CN(C(=O)CSc1c[nH]nn1)c1ccc(F)cc1 [Compound 23]
- MIC90 [1, 3]: 25 µg/mL (≈ 93.9 µM)
- melting point: 95 to 96 °C

Molecule: CCN(C(=O)CSc1c[nH]nn1)c1ccccc1F [Compound 24]
- MIC90 [1, 4]: 25 µg/mL (≈ 89.2 µM)
- MIC90 [1, 3]: 12.5 µg/mL (≈ 44.6 µM)
- melting point: 82 to 83 °C

Molecule: CCOC(=O)c1cnc(NC(=O)CSc2c[nH]nn2)s1 [Compound 26, Ethyl 2-{2-[(1H-1,2,3-triazol-4-yl)sulfanyl]acetamido}thiazole-5-carboxylate]
- MIC90 [1, 4]: 12.5 µg/mL (≈ 39.9 µM)
- MIC90 [1, 3]: 3.1 µg/mL (≈ 9.89 µM)
- melting point: 172 to 174 °C

Molecule: O=C(CSc1c[nH]nn1)Nc1ncccn1 [Compound 27]
- MIC90 [1, 3]: 25 µg/mL (≈ 106 µM)
- melting point: 136 to 138 °C

Molecule: O=C(CSc1c[nH]nn1)NC1CCCCC1 [Compound 31]
- MIC90 [1, 3]: 25 µg/mL (≈ 104 µM)
- melting point: 118 to 119 °C

Molecule: O=C(CSc1c[nH]nn1)NC1CCCC1 [Compound 33]
- MIC90 [1, 4]: 25 µg/mL (≈ 110 µM)
- MIC90 [1, 3]: 12.5 µg/mL (≈ 55.2 µM)
- melting point: 108 to 109 °C

Molecule: O=C(CSc1cnn[nH]1)NCc1ccccc1F [Compound 38, 2-[(1H-1,2,3-triazol-5-yl)sulfanyl]-N-(2-fluorobenzyl)acetamide]
- MIC90 [1, 3]: 3.1 µg/mL (≈ 11.6 µM)

Molecule: O=C(CSc1cnn[nH]1)NCc1ccc(F)cc1 [Compound 39, 2-[(1H-1,2,3-triazol-5-yl)sulfanyl]-N-(4-fluorobenzyl)acetamide]
- MIC90 [1, 4]: 50 µg/mL (≈ 188 µM)
- MIC90 [1, 3]: 6.3 µg/mL (≈ 23.7 µM)
- melting point: 122 to 124 °C

Molecule: O=C(CSc1cnn[nH]1)NCc1ccccn1 [Compound 40]
- MIC90 [1, 4]: > 50 µg/mL
- MIC90 [1, 3]: 12.5 µg/mL (≈ 50.1 µM)

Molecule: O=C(CSc1cnn[nH]1)NCc1cccc(F)c1 [Compound 41]
- MIC90 [1, 3]: 6.3 µg/mL (≈ 23.7 µM)
- melting point: 85 to 86 °C

Molecule: O=C(CSc1cnn[nH]1)NCc1cc(F)cc(C(F)(F)F)c1 [Compound 42]
- MIC90 [1, 3]: 50 µg/mL (≈ 150 µM)
- melting point: 82 to 84 °C

Molecule: O=C(CSc1cnn[nH]1)NCc1ccc(C(F)(F)F)cc1 [Compound 44]
- MIC90 [1, 3]: 50 µg/mL (≈ 158 µM)
- melting point: 133 to 135 °C

Molecule: O=C(CSc1cnn[nH]1)NCc1ccc(OC(F)(F)F)cc1 [Compound 45]
- MIC90 [1, 3]: 100 µg/mL (≈ 301 µM)
- melting point: 131 to 133 °C

Molecule: CN(Cc1ccccc1F)C(=O)CSc1cnn[nH]1 [Compound 46]
- MIC90 [1, 3]: 50 µg/mL (≈ 178 µM)

Molecule: Cn1nnnc1SCC(=O)Nc1ccccc1 [Compound 62]
- antibacterial activity against E. coli in words [1]: inactive
- MIC90 [1, 3]: > 200 µg/mL

Molecule: O=C(CSc1nncs1)Nc1ccccc1 [Compound 63]
- antibacterial activity against E. coli in words [1]: inactive
- MIC90 [1, 3]: > 200 µg/mL
- melting point: 109 to 110 °C

Molecule: Cc1nnc(SCC(=O)Nc2ccccc2)s1 [Compound 64]
- antibacterial activity against E. coli in words [1]: inactive
- MIC90 [1, 3]: > 200 µg/mL
- melting point: 153 to 154 °C

Molecule: Cn1nnnc1SCC(=O)Nc1ccccc1F [Compound 65]
- antibacterial activity against E. coli in words [1]: inactive
- MIC90 [1, 3]: > 200 µg/mL
- melting point: 137 to 139 °C

Molecule: O=C(CSc1nncs1)Nc1ccccc1F [Compound 66]
- antibacterial activity against E. coli in words [1]: inactive
- MIC90 [1, 3]: > 200 µg/mL
- melting point: 123 to 125 °C

Molecule: Cc1nnc(SCC(=O)Nc2ccccc2F)s1 [Compound 67]
- antibacterial activity against E. coli in words [1]: inactive
- MIC90 [1, 3]: > 200 µg/mL
- melting point: 111 to 113 °C

Molecule: Cn1nncc1SCC(=O)Nc1ccccc1 [Compound 68]
- antibacterial activity against E. coli in words [1]: inactive
- MIC90 [1, 3]: > 200 µg/mL

Molecule: Cn1cc(SCC(=O)Nc2ccccc2)nn1 [Compound 69]
- antibacterial activity against E. coli in words [1]: inactive
- MIC90 [1, 3]: > 200 µg/mL

Molecule: Cn1nncc1SCC(=O)Nc1ccccc1F [Compound 70]
- antibacterial activity against E. coli in words [1]: inactive
- MIC90 [1, 3]: > 200 µg/mL

Molecule: Cn1cc(SCC(=O)Nc2ccccc2F)nn1 [Compound 71]
- antibacterial activity against E. coli in words [1]: inactive
- MIC90 [1, 3]: > 200 µg/mL

Molecule: Cc1cc(NS(=O)(=O)c2ccc(N)cc2)no1 [Sulfamethoxazole, reference compound]
- MIC90 [1, 5]: 0.98 µg/mL (≈ 3.87 µM)

Molecule: COc1cc(Cc2cnc(N)nc2N)cc(OC)c1OC [Trimethoprim, reference compound]
- MIC90 [1, 5]: 0.98 µg/mL (≈ 3.38 µM)
